Assay results taken from article PMC12281142, “A potent phenylalkylamine disrupts mycobacterial membrane bioenergetics and augments bactericidal activity of bedaquiline” (iScience, 2025).
In brackets after ≈: the same amount, converted by molar mass. Several values for one entry are separate records, joined by “and”; a condition that tells them apart may be missing. Equal values may be shown once. Read-outs that look alike come from different tables or passages of the source.

Tests used:
M. bovis BCG [1] = experiment: microbe, parasite or virus in culture; format: cell-based, Mycobacterium bovis BCG; settings: for MIC90: Mycobacterium tuberculosis variant bovis BCG, BCG
M. bovis BCG [2] = format: cell-based, Mycobacterium bovis BCG
M. bovis BCG [3] = format: cell-based, Mycobacterium bovis BCG; settings: 0.5x to 4x MIC90BCG
M. bovis BCG [4] = format: cell-based, Mycobacterium bovis BCG; settings: 24 h
M. bovis BCG [5] = format: cell-based, Mycobacterium bovis BCG; settings: 2x MIC90BCG over 48 h
M. bovis BCG [6] = settings: 2x MIC90 over 24 h
Mtb H37Rv = experiment: MIC by broth microdilution against Mtb H37Rv; format: cell-based, Mycobacterium tuberculosis; settings: incubation 5 days
Mab abscessus ATCC 19977 = experiment: MIC against Mab abscessus ATCC 19977; format: cell-based, Mycobacterium abscessus subsp. abscessus; settings: for MIC90: read-out: MIC90 Mab abscessus ATCC 19977; for MIC50 Mab abscessus ATCC 19977: 3 days
[7] = test system: Mab massiliense CCUG 48898-T; experiment: MIC against Mab massiliense CCUG 48898-T; format: cell-based, Mycobacterium abscessus subsp. massiliense; settings: for MIC50 Mab massiliense CCUG 48898-T: 3 days
[8] = test system: Mab bolletii CCUG 50184-T; experiment: MIC against Mab bolletii CCUG 50184-T; format: cell-based, Mycobacterium abscessus subsp. bolletii; settings: for MIC50 Mab bolletii CCUG 50184-T: 3 days
Vero E6 = experiment: Cytotoxicity in Vero E6 cells; format: cell-based, African green monkey; settings: 48 h, growth suppressed by 50% vs untreated
Method: (§1) To each well in a 96-well plate, 50,000 cells in 100 μL media were seeded. Vero E6 and HepG2 cells were incubated overnight in DMEM for cell adherence at 37°C and 5% CO2. The media was removed from the wells and 100 μL solution made up of fresh DMEM media (99 μL) and the test compound (1 μL from a DMSO stock solution that was […] more concentrated than the final concentration in the well) was then added to each well. DMSO content of each well was consistently kept at 0.5 %v/v. Treated plates were incubated for 48 h (5% CO2, 37°C), after which 10 μL of Celltitre 96 Aqueous One Solution was added to each well, without removal of media, and incubated for a further 3 h. Subsequently, absorbance readings were taken at 490 nm on a Tecan GENios Microplate Reader.
(§2) Cell viability was determined from the expression: Cellviability(%)={[Absorbance(cells+cpd)−Absorbance(cpd)]/[Absorbance(cells+vc)−Absorbance(vc)]}×100% where Absorbance (cells + cpd) = absorbance of wells containing cells and test compound in vehicle (media +0.5% DMSO); Absorbance (cpd) = absorbance of wells containing test compound in vehicle without cells (compound control); Absorbance (cells + vc) = absorbance of wells containing cells in vehicle (vc) only (untreated cells); Absorbance (vc) = absorbance of wells containing vehicle without cells (vehicle control). The percentage viability readings were plotted against log(concentration) on GraphPad Prism (Version 7.0, San Diego, CA) to give a sigmoidal curve, from which IC50, defined as the concentration of the compound that reduced cell viability by 50%, was obtained. At least 3 separate determinations were carried out.

HepG2 = experiment: Cytotoxicity in HepG2 cells; format: cell-based, human; settings: 48 h, growth suppressed by 50% vs untreated
Method: as §1, §2

M. bovis BCG [9] = format: cell-based, Mycobacterium bovis BCG; remark: listed apart in the source
M. bovis BCG-pclgR-RFP = format: cell-based, Mycobacterium bovis BCG; settings: 0.25x – 2x MIC90 (controls 10 μM), 24 h
M. bovis BCG [10] = format: cell-based, Mycobacterium bovis BCG; settings: PhA2 2x–4x MIC90BCG, TDZ 80 μM, 24 h
[11] = M. bovis BCG, broth dilution, growth reduced by 90% vs untreated
[12] = read-out: MIC90 BCG, M. bovis BCG
[13] = 7H9 medium (first value of cell)
[14] = CA-MHB medium (second value of cell)

NNC(=O)c1ccncc1 [INH, isoniazid, reference compound]
MIC90 BCG (M. bovis BCG [1]; M. bovis BCG): 0.4 µg/mL (≈ 2.92 µM)
MIC90 (M. bovis BCG [1]; [11]): 3.4 µM
MIC90 (M. bovis BCG [1]; read-out: MIC90 (Table S1), M. bovis BCG, broth dilution): 3.5 µM
MIC90 (M. bovis BCG [1]; [12]): 0.45 µg/mL
regrowth in time-kill curve (M. bovis BCG [2]; 2xMIC90BCG, 21 days): uptick in CFUs was observed after 5 days
formazan formation from MTS (M. bovis BCG [3]): increased formazan formation
methylene blue decolorization (O2 uptake) (M. bovis BCG [4]; 4xMIC90BCG (1.6 μg/mL)): Decolorization (active O2 uptake)
effect on ATP levels (M. bovis BCG [5]): marked surge in ATP levels
membrane permeabilization (M. bovis BCG [6]): negligible permeabilization

COc1ccc(CCN(C)CCCC(C#N)(CCC2CCCCC2)c2ccc(OC)c(OC)c2)cc1OC (stereo not shown) [PhA1]
MIC50 (M. bovis BCG [1]): 12 µM (≈ 6.27 µg/mL)
MIC50 BCG With Glycerol (M. bovis BCG [1]): 12 µM (≈ 6.27 µg/mL)
MIC50 BCG Without Glycerol (M. bovis BCG [1]): 21 µM (≈ 11 µg/mL)
MIC90 (Table S1) (M. bovis BCG [1]): 25 µM (≈ 13.1 µg/mL)
MIC50 Mtb H37Rv (Mtb H37Rv; first value of cell MIC50/MIC90): 19 µM (≈ 9.93 µg/mL)
MIC90 (Mtb H37Rv; second value of cell MIC50/MIC90, read-out: MIC90 Mtb H37Rv): 43 µM (≈ 22.5 µg/mL)
MIC90 (Mab abscessus ATCC 19977; 7H9 broth (first value)): 115 µM (≈ 60.1 µg/mL)
MIC50 Mab abscessus ATCC 19977 (Mab abscessus ATCC 19977; [13]): 76 µM (≈ 39.7 µg/mL)
MIC50 Mab abscessus ATCC 19977 (Mab abscessus ATCC 19977; [14]): 25 µM (≈ 13.1 µg/mL)
MIC90 (Mab abscessus ATCC 19977; camH broth (second value)): 54 µM (≈ 28.2 µg/mL)
MIC90 ([7]; 7H9 broth (first value)): 106 µM (≈ 55.4 µg/mL)
MIC50 Mab massiliense CCUG 48898-T [7, 13]: 100 µM (≈ 52.3 µg/mL)
MIC50 Mab massiliense CCUG 48898-T [7, 14]: 15 µM (≈ 7.84 µg/mL)
MIC90 ([7]; camH broth (second value)): 125 µM (≈ 65.3 µg/mL)
MIC90 ([8]; 7H9 broth (first value)): 109 µM (≈ 57 µg/mL)
MIC50 Mab bolletii CCUG 50184-T [8, 13]: 97 µM (≈ 50.7 µg/mL)
MIC50 Mab bolletii CCUG 50184-T [8, 14]: 22 µM (≈ 11.5 µg/mL)
MIC90 ([8]; camH broth (second value)): 61 µM (≈ 31.9 µg/mL)
IC50 (Vero E6): 51 µM
IC50 (HepG2): 34 µM
MBC99.9 (10^3-fold kill) (M. bovis BCG [9]): 4 x MIC90
CFUs above the detection limit (M. bovis BCG [2]): 10–100 times

CO[C@H]1/C=C/O[C@@]2(C)Oc3c(C)c(O)c4c(O)c(c(/C=N/N5CCN(C)CC5)c(O)c4c3C2=O)NC(=O)/C(C)=C\C=C\[C@H](C)[C@H](O)[C@@H](C)[C@@H](O)[C@@H](C)[C@H](OC(C)=O)[C@@H]1C [RIF, rifampin, reference compound]
MIC90 (M. bovis BCG [1]; read-out: MIC90 BCG): 0.04 µM and 0.033 µg/mL
induction of pclgR promoter activity (M. bovis BCG-pclgR-RFP): No induction

CSc1ccc2c(c1)N(CCC1CCCCN1C)c1ccccc1S2 (stereo not shown) [TDZ, thioridazine, reference compound]
MIC90 (M. bovis BCG [1]; [11]): 30 µM
MIC90 (M. bovis BCG [1]; [12]): 11 µg/mL
NADH/NAD+ ratio (M. bovis BCG [10]): higher ratios
methylene blue decolorization (O2 uptake) (M. bovis BCG [4]; 80 μM, 30 μg/mL): No decolorization
